Like-named read-outs stand apart in the source and are kept apart here. Blank lines part the entries; values can stand above or below the molecule they belong to.
Key:
[1] = target: rat mGlu5 (Rattus norvegicus (Rat), UniProt P31424); assay: mGlu5 Ca2+ flux assay; format: cell-based; conditions: for Fold selectivity (mGlu3 vs. mGlu5): ratio of rat mGlu5 EC50 or IC50 to rat mGlu3 IC50; for EC50 / IC50: read-out: rat mGlu5 EC50 or IC50; for IC50: glutamate EC80; for Emax at 30 µM: read-out: rat mGlu5 Glu max (%)
rat mGlu5, sequence (P31424 21-1203): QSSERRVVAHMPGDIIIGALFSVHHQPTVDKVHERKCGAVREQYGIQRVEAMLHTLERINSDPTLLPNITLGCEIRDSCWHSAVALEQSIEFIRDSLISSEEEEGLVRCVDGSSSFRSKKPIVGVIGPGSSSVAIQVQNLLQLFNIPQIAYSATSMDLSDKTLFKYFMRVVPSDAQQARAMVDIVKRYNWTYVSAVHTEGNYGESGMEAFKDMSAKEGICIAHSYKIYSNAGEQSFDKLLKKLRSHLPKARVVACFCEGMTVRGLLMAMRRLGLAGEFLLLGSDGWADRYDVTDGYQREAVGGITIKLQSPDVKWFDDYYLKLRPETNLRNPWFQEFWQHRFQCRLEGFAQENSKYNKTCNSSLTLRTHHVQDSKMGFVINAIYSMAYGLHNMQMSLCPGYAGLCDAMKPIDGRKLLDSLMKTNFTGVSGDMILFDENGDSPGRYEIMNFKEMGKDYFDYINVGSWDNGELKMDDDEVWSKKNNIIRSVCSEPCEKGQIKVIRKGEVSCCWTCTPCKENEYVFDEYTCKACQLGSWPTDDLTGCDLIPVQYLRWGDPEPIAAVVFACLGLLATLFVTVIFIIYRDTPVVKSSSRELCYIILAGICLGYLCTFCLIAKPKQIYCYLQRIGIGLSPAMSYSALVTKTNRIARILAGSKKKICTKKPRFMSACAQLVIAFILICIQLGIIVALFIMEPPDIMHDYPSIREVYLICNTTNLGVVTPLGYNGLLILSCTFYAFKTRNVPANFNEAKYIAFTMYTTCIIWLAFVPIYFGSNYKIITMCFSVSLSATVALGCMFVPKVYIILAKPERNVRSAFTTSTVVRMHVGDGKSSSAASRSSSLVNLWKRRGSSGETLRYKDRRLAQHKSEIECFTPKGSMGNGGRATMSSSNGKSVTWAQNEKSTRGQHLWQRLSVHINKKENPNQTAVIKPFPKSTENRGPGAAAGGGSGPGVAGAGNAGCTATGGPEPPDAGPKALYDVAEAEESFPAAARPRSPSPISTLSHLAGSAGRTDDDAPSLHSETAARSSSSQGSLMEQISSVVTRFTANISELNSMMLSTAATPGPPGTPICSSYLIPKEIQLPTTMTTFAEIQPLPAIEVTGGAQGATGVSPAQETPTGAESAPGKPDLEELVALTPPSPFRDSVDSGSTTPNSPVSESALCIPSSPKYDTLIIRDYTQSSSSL
Method in brief: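 Ca2+ flux read kinetically (FDSS7000) after overnight culture at 37° C/5% CO2 and a 5 min room-temperature buffer step following dye removal. Signals expressed per well as F/F0 and normalized to peak glutamate response; EC50 fitted by free 4-parameter logistic, three replicates per concentration equally weighted.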

[2] = target: rat mGlu3 (Rattus norvegicus (Rat), UniProt P31422); assay: mGlu3 Ca2+ flux assay; format: cell-based; conditions: for IC50: read-out: rat mGlu3 IC50; for remaining activity at 30 µM: amplitude of response at 30 μM test compound as % of maximal response to glutamate, read-out: rat mGlu3 Glu max (%)
rat mGlu3, sequence (P31422 23-879): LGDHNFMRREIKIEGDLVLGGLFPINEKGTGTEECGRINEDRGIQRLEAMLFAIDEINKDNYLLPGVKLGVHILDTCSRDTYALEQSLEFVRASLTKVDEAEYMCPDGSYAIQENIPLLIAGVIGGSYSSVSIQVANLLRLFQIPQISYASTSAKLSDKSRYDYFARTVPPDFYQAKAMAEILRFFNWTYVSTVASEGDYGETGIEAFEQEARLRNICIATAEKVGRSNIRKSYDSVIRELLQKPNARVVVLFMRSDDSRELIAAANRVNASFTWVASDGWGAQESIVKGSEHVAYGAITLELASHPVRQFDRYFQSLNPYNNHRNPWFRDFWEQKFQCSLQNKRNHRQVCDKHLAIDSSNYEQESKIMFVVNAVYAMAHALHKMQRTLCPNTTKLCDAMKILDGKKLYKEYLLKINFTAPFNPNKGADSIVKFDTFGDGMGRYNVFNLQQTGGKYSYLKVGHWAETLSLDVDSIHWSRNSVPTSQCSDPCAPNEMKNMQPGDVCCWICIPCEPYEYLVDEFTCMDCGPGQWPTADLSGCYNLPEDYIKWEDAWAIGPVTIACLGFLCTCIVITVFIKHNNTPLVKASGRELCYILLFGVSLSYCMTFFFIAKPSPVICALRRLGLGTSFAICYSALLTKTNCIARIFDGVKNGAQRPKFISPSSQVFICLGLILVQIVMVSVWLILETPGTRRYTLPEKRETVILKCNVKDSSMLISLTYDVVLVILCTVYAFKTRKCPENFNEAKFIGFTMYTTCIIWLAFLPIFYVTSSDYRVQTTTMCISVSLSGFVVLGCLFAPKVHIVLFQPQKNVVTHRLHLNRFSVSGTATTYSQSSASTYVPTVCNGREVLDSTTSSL
Method in brief: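 This calcium mobilization assay used rat mGlu3 cells cultured overnight (37° C., 5% CO2) and read on the FDSS7000 after a 10 minute room-temperature incubation in 20 μL assay buffer. Each of 360 readings per well was divided by its initial value (F/F0). Potency came from fitting normalized responses against log concentration with an unconstrained 4 parameter logistic equation, weighting triplicate points equally.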

[3] = NAM potency, decrease of glutamate EC80 response, >30,000 = no measurable activity, >10,000 = no plateau
[4] = compound noted as NAM or partial antagonist (PAnt) at mGlu5
[5] = compound noted as NAM or partial antagonist (PAnt) at mGlu5, response at 30 μM as % of maximal glutamate response
[6] = PAM, amplitude of response at 30 μM test compound as % of maximal response to glutamate

SMILES: COc1ccccc1NCc1cc2n(n1)CCN(c1ccc(F)cc1)C2=O [Compound 6, 5-(4-fluorophenyl)-2-(((2-methoxyphenyl)amino)methyl)-6,7-dihydropyrazolo[1,5-a]pyrazin-4(5H)-one]
- Fold selectivity (mGlu3 vs. mGlu5) [1]: >9.8
- EC50 [1]: > 30000 nM
- IC50 [2, 3]: 3040 nM
- remaining activity at 30 µM [2]: 0.98%

SMILES: Cc1ccc(NCc2cc3n(n2)CCN(c2ccc(F)cc2)C3=O)nc1 [Compound 159, 5-(4-fluorophenyl)-2-(((5-methylpyridin-2-yl)amino)methyl)-6,7-dihydropyrazolo[1,5-a]pyrazin-4(5H)-one]
- Fold selectivity (mGlu3 vs. mGlu5) [1]: >16
- EC50 [1]: > 30000 nM
- IC50 [2, 3]: 1770 nM
- remaining activity at 30 µM [2]: 0.86%

SMILES: COc1ccc(N(C)Cc2cc3n(n2)CCN(c2ccccc2C)C3=O)cc1 [Compound 111, 2-(((4-methoxyphenyl)(methyl)amino)methyl)-5-(o-tolyl)-6,7-dihydropyrazolo[1,5-a]pyrazin-4(5H)-one]
- Fold selectivity (mGlu3 vs. mGlu5) [1]: >15
- EC50 [1]: > 30000 nM
- IC50 [2, 3]: 2000 nM
- remaining activity at 30 µM [2]: 0.74%

SMILES: C[C@@H]1CN(c2ccc(F)cc2)C(=O)c2cc(CNc3ccc(CC#N)cc3)nn21 [Compound 66, (R)-2-(4-(((5-(4-fluorophenyl)-7-methyl-4-oxo-4,5,6,7-tetrahydropyrazolo[1,5-a]pyrazin-2-yl)methyl)amino)phenyl)acetonitrile]
- Fold selectivity (mGlu3 vs. mGlu5) [1]: >20
- EC50 [1]: > 30000 nM
- IC50 [2, 3]: 1460 nM
- remaining activity at 30 µM [2]: 0.95%

SMILES: C[C@@H]1CN(c2ccc(F)cc2)C(=O)c2cc(CNc3cccc(OC(F)F)c3)nn21 [Compound 54, (R)-2-(((3-(difluoromethoxy)phenyl)amino)methyl)-5-(4-fluorophenyl)-7-methyl-6,7-dihydropyrazolo[1,5-a]pyrazin-4(5H)-one]
- IC50 [1, 4]: > 10000 nM
- Emax at 30 µM [1, 5]: 36%
- Fold selectivity (mGlu3 vs. mGlu5) [1]: >4.9
- IC50 [2, 3]: 2040 nM
- remaining activity at 30 µM [2]: 3.56%

SMILES: O=C1c2cc(CNc3cccc(OC(F)F)c3)nn2CCN1c1ccc(F)cc1 [Compound 12, 2-(((3-(difluoromethoxy)phenyl)amino)methyl)-5-(4-fluorophenyl)-6,7-dihydropyrazolo[1,5-a]pyrazin-4(5H)-one]
- Emax at 30 µM [1, 6]: 85.6%
- Fold selectivity (mGlu3 vs. mGlu5) [1]: 14.51
- EC50 [1]: 7330 nM
- IC50 [2, 3]: 505 nM
- remaining activity at 30 µM [2]: 1.31%

SMILES: O=C1c2cc(CNc3ccccc3)nn2CCN1c1ccc(F)cc1 [Compound 2, 5-(4-fluorophenyl)-2-((phenylamino)methyl)-6,7-dihydropyrazolo[1,5-a]pyrazin-4(5H)-one]
- Emax at 30 µM [1, 6]: 98.3%
- Fold selectivity (mGlu3 vs. mGlu5) [1]: 1.55
- EC50 [1]: 2040 nM
- IC50 [2, 3]: 1320 nM
- remaining activity at 30 µM [2]: 1.99%

SMILES: C[C@H]1CN(c2ccc(F)cc2)C(=O)c2cc(CNc3ccc(F)c(F)c3)nn21 [Compound 78, (S)-2-(((3,4-difluorophenyl)amino)methyl)-5-(4-fluorophenyl)-7-methyl-6,7-dihydropyrazolo[1,5-a]pyrazin-4(5H)-one]
- Emax at 30 µM [1, 6]: 61.6%
- Fold selectivity (mGlu3 vs. mGlu5) [1]: >8.5
- EC50 [1]: > 10000 nM
- IC50 [2, 3]: 1170 nM
- remaining activity at 30 µM [2]: 1.23%

SMILES: N#Cc1ccc(NCc2cc3n(n2)CCN(c2ccc(F)cc2)C3=O)cc1 [Compound 18, 4-(((5-(4-fluorophenyl)-4-oxo-4,5,6,7-tetrahydropyrazolo[1,5-a]pyrazin-2-yl)methyl)amino)benzonitrile]
- Fold selectivity (mGlu3 vs. mGlu5) [1]: >6.2
- EC50 [1]: > 30000 nM
- IC50 [2, 3]: 4780 nM
- remaining activity at 30 µM [2]: 1.71%

SMILES: C[C@H]1CN(c2ccc(F)cc2)C(=O)c2cc(CNc3cc(F)ccc3F)nn21 [Compound 71, (S)-2-(((2,5-difluorophenyl)amino)methyl)-5-(4-fluorophenyl)-7-methyl-6,7-dihydropyrazolo[1,5-a]pyrazin-4(5H)-one]
- Emax at 30 µM [1, 6]: 76.6%
- Fold selectivity (mGlu3 vs. mGlu5) [1]: 7.33
- EC50 [1]: 9600 nM
- IC50 [2, 3]: 1310 nM
- remaining activity at 30 µM [2]: 1.6%

SMILES: COc1ccc(N(C)Cc2cc3n(n2)CCN(c2ccc(F)cc2Cl)C3=O)cc1 [Compound 130, 5-(2-chloro-4-fluorophenyl)-2-(((4-methoxyphenyl)(methyl)amino)methyl)-6,7-dihydropyrazolo[1,5-a]pyrazin-4(5H)-one]
- Fold selectivity (mGlu3 vs. mGlu5) [1]: >15
- EC50 [1]: > 30000 nM
- IC50 [2, 3]: 1950 nM
- remaining activity at 30 µM [2]: 2.05%

SMILES: O=C1c2cc(CNc3ccc(OC(F)F)cc3F)nn2CCN1c1ccc(F)c(F)c1 [Compound 145, 2-(((4-(difluoromethoxy)-2-fluorophenyl)amino)methyl)-5-(3,4-difluorophenyl)-6,7-dihydropyrazolo[1,5-a]pyrazin-4(5H)-one]
- Fold selectivity (mGlu3 vs. mGlu5) [1]: >37
- EC50 [1]: > 30000 nM
- IC50 [2, 3]: 800 nM
- remaining activity at 30 µM [2]: 2.55%

SMILES: COc1cccc(N(C)Cc2cc3n(n2)CCN(c2ccc(F)cc2)C3=O)c1 [Compound 88, 5-(4-fluorophenyl)-2-(((3-methoxyphenyl)(methyl)amino)methyl)-6,7-dihydropyrazolo[1,5-a]pyrazin-4(5H)-one]
- Fold selectivity (mGlu3 vs. mGlu5) [1]: >29
- EC50 [1]: > 30000 nM
- IC50 [2, 3]: 1020 nM
- remaining activity at 30 µM [2]: 0.55%

SMILES: C[C@@H]1CN(c2ccc(F)cc2)C(=O)c2cc(CNc3ccccc3F)nn21 [Compound 42, (R)-5-(4-fluorophenyl)-2-(((2-fluorophenyl)amino)methyl)-7-methyl-6,7-dihydropyrazolo[1,5-a]pyrazin-4(5H)-one]
- Emax at 30 µM [1, 6]: 71.4%
- Fold selectivity (mGlu3 vs. mGlu5) [1]: >11
- EC50 [1]: > 10000 nM
- IC50 [2, 3]: 871 nM
- remaining activity at 30 µM [2]: 0.89%

SMILES: O=C1c2cc(CNc3c(F)cccc3F)nn2CCN1c1ccc(F)cc1 [Compound 32, 2-(((2,6-difluorophenyl)amino)methyl)-5-(4-fluorophenyl)-6,7-dihydropyrazolo[1,5-a]pyrazin-4(5H)-one]
- Emax at 30 µM [1, 6]: 84.1%
- Fold selectivity (mGlu3 vs. mGlu5) [1]: 8.41
- EC50 [1]: 8830 nM
- IC50 [2, 3]: 1050 nM
- remaining activity at 30 µM [2]: 1.25%

SMILES: CC(C)c1ccc(NCc2cc3n(n2)CCN(c2ccc(F)cc2)C3=O)cc1 [Compound 23, 5-(4-fluorophenyl)-2-(((4-isopropylphenyl)amino)methyl)-6,7-dihydropyrazolo[1,5-a]pyrazin-4(5H)-one]
- Fold selectivity (mGlu3 vs. mGlu5) [1]: >3
- EC50 [1]: > 30000 nM
- remaining activity at 30 µM [2]: 28.9%
- IC50 [2]: > 10000 nM

SMILES: CN(Cc1cc2n(n1)CCN(c1ccc(F)cc1)C2=O)c1ccc(Cl)cc1 [Compound 90, 2-(((4-chlorophenyl)(methyl)amino)methyl)-5-(4-fluorophenyl)-6,7-dihydropyrazolo[1,5-a]pyrazin-4(5H)-one]
- Emax at 30 µM [1, 6]: 87.3%
- Fold selectivity (mGlu3 vs. mGlu5) [1]: 5.08
- EC50 [1]: 4500 nM
- IC50 [2, 3]: 885 nM
- remaining activity at 30 µM [2]: 1.4%

- Fold selectivity (mGlu3 vs. mGlu5) [1]: >10
- EC50 [1]: > 30000 nM
- remaining activity at 30 µM [2]: 1.48%
- IC50 [2]: 2880 nM
SMILES: COCc1ccc(N2CCn3nc(CN(C)c4ccc(OC)cc4)cc3C2=O)cc1 [Compound 120, 5-(4-(methoxymethyl)phenyl)-2-(((4-methoxyphenyl)(methyl)amino)methyl)-6,7-dihydropyrazolo[1,5-a]pyrazin-4(5H)-one]

SMILES: O=C1c2cc(CNc3ccc4c(c3)OC(F)(F)O4)nn2CCN1c1ccc(F)cc1 [Compound 39, 2-(((2,2-difluorobenzo[d][1,3]dioxol-5-yl)amino)methyl)-5-(4-fluorophenyl)-6,7-dihydropyrazolo[1,5-a]pyrazin-4(5H)-one]
- Emax at 30 µM [1, 6]: 75.7%
- Fold selectivity (mGlu3 vs. mGlu5) [1]: >3.4
- EC50 [1]: > 10000 nM
- IC50 [2, 3]: 2880 nM
- remaining activity at 30 µM [2]: 1.95%

SMILES: O=C1c2cc(CNc3ccc(Cl)cn3)nn2CCN1c1ccc(F)cc1 [Compound 158, 2-(((5-chloropyridin-2-yl)amino)methyl)-5-(4-fluorophenyl)-6,7-dihydropyrazolo[1,5-a]pyrazin-4(5H)-one]
- IC50 [1, 4]: 2420 nM
- Emax at 30 µM [1, 5]: 73.6%
- Fold selectivity (mGlu3 vs. mGlu5) [1]: 4.02
- IC50 [2, 3]: 602 nM
- remaining activity at 30 µM [2]: 1.27%

SMILES: COc1ccc(N(C)Cc2cc3n(n2)CCN(c2c(F)cc(Cl)cc2F)C3=O)cc1 [Compound 128, 5-(4-chloro-2,6-difluorophenyl)-2-(((4-methoxyphenyl)(methyl)amino)methyl)-6,7-dihydropyrazolo[1,5-a]pyrazin-4(5H)-one]
- Fold selectivity (mGlu3 vs. mGlu5) [1]: >16
- EC50 [1]: > 30000 nM
- IC50 [2, 3]: 1860 nM
- remaining activity at 30 µM [2]: 1.8%

SMILES: C[C@@H]1CN(c2ccc(F)cc2)C(=O)c2cc(CNc3ccc(OC(F)F)cc3)nn21 [Compound 64, (R)-2-(((4-(difluoromethoxy)phenyl)amino)methyl)-5-(4-fluorophenyl)-7-methyl-6,7-dihydropyrazolo[1,5-a]pyrazin-4(5H)-one]
- Fold selectivity (mGlu3 vs. mGlu5) [1]: >22
- EC50 [1]: > 30000 nM
- IC50 [2, 3]: 1350 nM
- remaining activity at 30 µM [2]: 2.46%

SMILES: COc1ccc(N(C)Cc2cc3n(n2)CCN(c2cc(Cl)ccc2F)C3=O)cc1 [Compound 127, 5-(5-chloro-2-fluorophenyl)-2-(((4-methoxyphenyl)(methyl)amino)methyl)-6,7-dihydropyrazolo[1,5-a]pyrazin-4(5H)-one]
- IC50 [1, 4]: > 10000 nM
- Emax at 30 µM [1, 5]: 54.6%
- Fold selectivity (mGlu3 vs. mGlu5) [1]: >7.9
- IC50 [2, 3]: 1260 nM
- remaining activity at 30 µM [2]: 2.32%

— US9676782B2, “Substituted pyrazolo[1,5-a]pyrazines as negative allosteric modulators of metabotropic glutamate receptor 3” (Vanderbilt University, priority 2014, dated 2017)
